Source: paper PMC11862611 (RSC Medicinal Chemistry, 2025)

Columns and labels:
[1] = system: L. major promastigotes (FV1) WT; experiment: anti-promastigote assay, L. major (resazurin); format: cell-based; conditions: Leishmania major; promastigote parasites (Table 1); read-out: L.mj EC50
Protocol: 4.2.3.1. Anti-promastigote assays
L. major promastigotes (FV1) WT, PX and Δ LCB2 in Schneider’s insect medium (100 μL at 1 × 106 mL−1) were incubated in 96-well plates with compounds in triplicate (amphotericin B and cycloheximide were used as positive controls, and untreated parasites with 1% DMSO as a negative control) at 26 °C for 48 h.
Resazurin Solution (10 μL) was then added and the plate incubated at 26 °C for 4 h prior to measurement using a fluorescence plate reader (555 - 585 nm). EC50 values were calculated using sigmoidal regression analysis (GraphPad Prism). […]
well-1 in a 24-well plate with round cover slips and incubated for 24 h at 37 °C and 5% CO2. […]

[2] = system: L. major ΔLCB2 promastigotes; format: cell-based, Leishmania major; conditions: EC50 WT versus ΔLCB2 L. major promastigotes
[3] = system: L. major PX promastigotes; experiment: on-target growth inhibition, add-back cell line (PX); format: cell-based, Leishmania major
[4] = target: T1, H1 (h) (antagonist radioligand) (Homo sapiens, UniProt P35367); experiment: radioligand displacement assay, H1; format: binding
T1 construct: purchased Eurofins (contract assay); host or cells: cell membrane homogenates
T1 sequence (P35367 whole entry): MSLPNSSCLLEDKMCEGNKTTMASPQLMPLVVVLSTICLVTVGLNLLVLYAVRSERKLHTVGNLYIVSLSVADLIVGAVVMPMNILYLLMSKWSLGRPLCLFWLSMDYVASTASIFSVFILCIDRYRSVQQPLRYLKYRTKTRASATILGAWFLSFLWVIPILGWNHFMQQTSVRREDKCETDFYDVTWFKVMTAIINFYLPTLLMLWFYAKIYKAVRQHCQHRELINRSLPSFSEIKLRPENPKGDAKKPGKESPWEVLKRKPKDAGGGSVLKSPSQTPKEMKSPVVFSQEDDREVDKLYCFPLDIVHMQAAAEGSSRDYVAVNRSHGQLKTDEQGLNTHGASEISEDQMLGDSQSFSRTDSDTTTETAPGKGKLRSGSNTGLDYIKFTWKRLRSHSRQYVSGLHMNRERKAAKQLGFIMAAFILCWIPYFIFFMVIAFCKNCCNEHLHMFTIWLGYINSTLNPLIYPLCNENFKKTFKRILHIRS
Protocol: (§1) 4.2.3.6. Radioligand Binding Assay (Supplemental Figure S3)
(§2) These assays were run by Eurofins under contract to LifeArc FR095-0011887. A representative protocol describing the human histamine H2 receptor (antagonist radioligand) assay is shown below.12 Cell membrane homogenates (24 µg protein) are incubated for 120 min at 22°C with 0.075 nM [125I]APT in the absence or presence of the test compound in a buffer containing 50 mM Na2HPO4/KH2PO4 (pH […]
(§3) 7.4) and 0.05% BSA. […] Following

[5] = target: T2, M4 (h) (antagonist radioligand) (Homo sapiens, UniProt P08173); experiment: radioligand displacement assay, M4; format: binding
T2 construct: purchased Eurofins (contract assay); host or cells: cell membrane homogenates
T2 sequence (P08173 1-479): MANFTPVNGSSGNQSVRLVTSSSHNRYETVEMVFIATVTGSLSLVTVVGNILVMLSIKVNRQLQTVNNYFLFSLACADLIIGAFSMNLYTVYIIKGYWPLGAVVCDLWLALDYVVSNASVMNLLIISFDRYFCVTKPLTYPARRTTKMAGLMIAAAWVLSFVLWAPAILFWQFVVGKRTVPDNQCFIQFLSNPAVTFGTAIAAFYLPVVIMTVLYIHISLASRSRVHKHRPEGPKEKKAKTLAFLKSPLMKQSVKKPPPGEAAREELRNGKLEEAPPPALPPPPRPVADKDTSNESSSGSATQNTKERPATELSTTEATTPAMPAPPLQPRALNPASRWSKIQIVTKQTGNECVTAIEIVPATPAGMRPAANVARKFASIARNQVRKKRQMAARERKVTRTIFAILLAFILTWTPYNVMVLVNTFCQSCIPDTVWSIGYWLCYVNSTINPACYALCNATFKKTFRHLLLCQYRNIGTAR
Protocol: as §1, §2, §3

[6] = target: T3, M5 (h) (antagonist radioligand) (Homo sapiens, UniProt P08912); experiment: radioligand displacement assay, M5; format: binding
T3 construct: purchased Eurofins (contract assay); host or cells: cell membrane homogenates
T3 sequence (P08912 1-532): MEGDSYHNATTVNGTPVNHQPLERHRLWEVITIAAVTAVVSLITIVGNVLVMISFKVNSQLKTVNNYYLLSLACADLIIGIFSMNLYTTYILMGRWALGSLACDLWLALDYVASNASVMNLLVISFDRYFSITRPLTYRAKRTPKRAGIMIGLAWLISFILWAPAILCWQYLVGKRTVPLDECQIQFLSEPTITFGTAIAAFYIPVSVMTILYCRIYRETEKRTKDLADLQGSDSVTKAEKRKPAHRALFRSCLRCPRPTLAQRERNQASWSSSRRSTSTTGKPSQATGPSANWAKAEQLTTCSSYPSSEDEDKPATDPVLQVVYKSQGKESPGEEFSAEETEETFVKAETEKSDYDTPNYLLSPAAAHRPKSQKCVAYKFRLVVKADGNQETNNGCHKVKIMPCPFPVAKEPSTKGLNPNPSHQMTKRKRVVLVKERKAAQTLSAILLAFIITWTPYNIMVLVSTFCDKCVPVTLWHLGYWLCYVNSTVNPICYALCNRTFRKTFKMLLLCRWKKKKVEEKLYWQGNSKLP
Protocol: as §1, §2, §3

[7] = target: T4, 5-HTB2 receptors (Homo sapiens, UniProt P41595); experiment: radioligand displacement assay, 5-HT2B; format: binding
T4 construct: purchased Eurofins (contract assay); host or cells: cell membrane homogenates
T4 sequence (P41595 whole entry): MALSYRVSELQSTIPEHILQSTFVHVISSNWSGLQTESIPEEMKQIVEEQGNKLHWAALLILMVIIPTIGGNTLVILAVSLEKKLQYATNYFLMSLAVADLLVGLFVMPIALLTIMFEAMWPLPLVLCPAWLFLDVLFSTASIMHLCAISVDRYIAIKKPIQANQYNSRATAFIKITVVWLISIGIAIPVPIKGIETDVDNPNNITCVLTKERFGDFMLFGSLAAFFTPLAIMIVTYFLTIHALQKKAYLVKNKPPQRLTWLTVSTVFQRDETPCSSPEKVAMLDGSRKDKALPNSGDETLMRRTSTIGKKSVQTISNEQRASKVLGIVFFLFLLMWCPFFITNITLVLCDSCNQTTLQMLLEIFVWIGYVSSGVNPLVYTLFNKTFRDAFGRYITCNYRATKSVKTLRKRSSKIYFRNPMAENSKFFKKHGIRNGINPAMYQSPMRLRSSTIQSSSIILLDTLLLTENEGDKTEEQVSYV
Protocol: as §1, §2, §3

[8] = system: panel of neurotransmitter receptors; experiment: radioligand displacement assay, whole panel; format: binding, human
Protocol: as §1, §2, §3

[9] = system: L. amazonensis GFP promastigotes; experiment: mouse model of L. amazonensis infection (ear, IL dosing); format: in vivo, BALB/c mice; conditions: 1.2 mg kg^−1 IL twice a week for 4 weeks
Protocol: Consequently, we used IL dosing for this experiment. To enable direct comparison with CF, the same treatment regimen (dose of 1.2 mg kg^−1via IL injection twice a week for 4 weeks starting on DPI) was used for both compounds.
A Weight variation of mice during 28 days of treatment. B Progression of lesion thickness over 28 day treatment period. C Representative photographs of the infected ear for each group taken after completion of treatment, D parasite burden was evaluated by LDA on 36 days post infection. […]
In vivo assays were conducted as previously reported 1. Two month old BALB/c female mice, weighing 20 - 25 g and of approximately the same age were used for the study. For infection of mice, stationary phase GFP L. amazonensis promastigotes were collected, washed and suspended in sterile PBS. A volume of 10 μl of sterile PBS containing 2 x 10^6 parasites was injected into the right ear. […]
Infected ear thicknesses were measured once or twice a week with a caliper gauge, and the lesion sizes were expressed as the difference between the thickness of infected and non-infected ear. On day 41 animals were sacrificed and the fluorescence measured (485 - 528 nm) and parasite load quantified using a limiting dilution assay (LDA).
Data on lesion progression were analysed for statistical significance by using the Dunnett test as part of the one-way ANOVA (GraphPad Prism 8 software). […]

## C[C@H]1CCCN1CCCO[C@H](c1ccccc1)c1ccc(Cl)cc1 [38l]
[1]
  EC50: 30 nM
[2]
  times more active against WT than mutant ΔLCB2 promastigotes: approximately 3 times
[3]
  sensitivity in the add-back cell line (PX): Sensitivity was restored
[4]
  effective binding, radioligand displacement, H1: > 40%
[5]
  effective binding, radioligand displacement, M4: > 40%
[6]
  affinity, radioligand displacement, M5: lower affinity
[7]
  affinity, radioligand displacement, 5-HTB2: lower affinity
[8]
  binding profile across receptor panel: greater selectivity
[9]; 35 days post-infection
  lesion growth trends: similar
[9]; LDA 36 days post infection
  parasitaemia (parasite burden by LDA) versus untreated group: statistically significant reduction
